Assay results taken from ChEMBL document CHEMBL4476867, “Hydroxy formamide derivatives and their use” (2016).

Experiments:
Tolloid-like protein 2 = target: T1, Tolloid-like protein 2 (Homo sapiens, UniProt Q9Y6L7); assay: Inhibition of C-terminal Avi-6x-His epitope tagged and N-terminal human RAGE signal sequence tagged recombinant human TLL2 (26 to 1015 amino acids) expressed in CHOE1A cells incubated for 60 mins with promyostatin peptide substrate by FRET based assay; format: cell-based
T1 sequence (Q9Y6L7 whole entry): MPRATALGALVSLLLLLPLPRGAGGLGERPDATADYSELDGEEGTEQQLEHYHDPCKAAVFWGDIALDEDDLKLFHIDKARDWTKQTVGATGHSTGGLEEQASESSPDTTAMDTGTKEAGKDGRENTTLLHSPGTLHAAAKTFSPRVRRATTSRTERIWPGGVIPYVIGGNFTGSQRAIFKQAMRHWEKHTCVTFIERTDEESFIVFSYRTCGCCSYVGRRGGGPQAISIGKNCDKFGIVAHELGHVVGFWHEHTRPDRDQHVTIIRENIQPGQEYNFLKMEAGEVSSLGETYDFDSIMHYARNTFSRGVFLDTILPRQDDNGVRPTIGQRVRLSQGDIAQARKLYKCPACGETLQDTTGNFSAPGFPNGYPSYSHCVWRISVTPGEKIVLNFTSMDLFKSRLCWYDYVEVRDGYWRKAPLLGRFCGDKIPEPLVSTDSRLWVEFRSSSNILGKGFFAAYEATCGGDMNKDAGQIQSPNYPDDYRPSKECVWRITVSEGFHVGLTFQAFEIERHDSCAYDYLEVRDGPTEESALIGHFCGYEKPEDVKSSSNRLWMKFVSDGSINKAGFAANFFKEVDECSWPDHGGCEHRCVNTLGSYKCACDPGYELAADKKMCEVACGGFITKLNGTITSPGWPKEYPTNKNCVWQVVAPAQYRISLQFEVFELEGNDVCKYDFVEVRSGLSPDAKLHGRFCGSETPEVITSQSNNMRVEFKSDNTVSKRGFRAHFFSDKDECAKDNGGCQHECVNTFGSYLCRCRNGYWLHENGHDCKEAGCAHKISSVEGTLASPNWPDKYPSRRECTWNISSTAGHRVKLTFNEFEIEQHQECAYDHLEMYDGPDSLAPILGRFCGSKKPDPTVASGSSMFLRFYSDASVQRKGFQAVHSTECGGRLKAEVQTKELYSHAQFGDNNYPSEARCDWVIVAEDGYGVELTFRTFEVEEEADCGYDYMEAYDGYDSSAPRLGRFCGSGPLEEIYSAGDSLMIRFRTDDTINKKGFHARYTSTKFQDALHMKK

Tolloid-like protein 1 = Tolloid-like protein 1 (Homo sapiens, UniProt O43897, I156V/N221S/V284A); assay: Inhibition of recombinant human TLL1 I156V/N221S/V284A mutant expressed in CHOE1A cells pre-incubated for 10 mins before promyostatin peptide substrate addition and measured after 60 mins by FRET based assay; format: cell-based
[1] = target: T2, Bone morphogenetic protein 1 (Homo sapiens, UniProt P13497); assay: Inhibition of C-terminal FLAG-6x-His epitope tagged and N-terminal human RAGE signal sequence tagged human BMP1 (23 to 721 amino acids) expressed in CHO-E1 cells pre-incubated for 10 mins before promyostatin peptide substrate addition and measured after 30 mins using 50 nM BMP1 by FRET based assay; format: cell-based
T2 sequence (P13497 whole entry): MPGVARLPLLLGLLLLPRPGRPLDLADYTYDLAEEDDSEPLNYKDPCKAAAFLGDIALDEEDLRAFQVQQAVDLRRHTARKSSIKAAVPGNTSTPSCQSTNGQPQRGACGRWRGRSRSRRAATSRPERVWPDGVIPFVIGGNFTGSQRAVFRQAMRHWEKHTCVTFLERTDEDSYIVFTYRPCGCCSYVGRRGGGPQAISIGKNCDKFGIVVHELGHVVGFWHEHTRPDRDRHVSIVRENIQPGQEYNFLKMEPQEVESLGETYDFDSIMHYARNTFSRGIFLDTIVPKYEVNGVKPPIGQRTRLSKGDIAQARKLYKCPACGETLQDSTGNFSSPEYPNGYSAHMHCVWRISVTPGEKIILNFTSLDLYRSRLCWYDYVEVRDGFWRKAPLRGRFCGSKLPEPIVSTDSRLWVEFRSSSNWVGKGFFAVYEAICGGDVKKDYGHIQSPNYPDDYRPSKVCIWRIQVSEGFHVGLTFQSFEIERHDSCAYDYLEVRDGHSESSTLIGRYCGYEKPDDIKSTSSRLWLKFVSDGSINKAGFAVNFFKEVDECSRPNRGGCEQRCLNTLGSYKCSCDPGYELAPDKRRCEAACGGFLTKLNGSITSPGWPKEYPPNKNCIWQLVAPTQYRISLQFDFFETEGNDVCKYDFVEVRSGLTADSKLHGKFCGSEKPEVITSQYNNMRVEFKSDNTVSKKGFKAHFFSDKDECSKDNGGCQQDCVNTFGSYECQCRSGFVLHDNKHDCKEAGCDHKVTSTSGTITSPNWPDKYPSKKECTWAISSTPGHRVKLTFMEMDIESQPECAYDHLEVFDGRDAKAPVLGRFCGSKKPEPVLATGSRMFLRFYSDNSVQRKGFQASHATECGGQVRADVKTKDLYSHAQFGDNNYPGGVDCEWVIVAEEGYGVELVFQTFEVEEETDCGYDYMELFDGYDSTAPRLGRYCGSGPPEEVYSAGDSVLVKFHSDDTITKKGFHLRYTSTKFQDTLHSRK

[2] = target: T2, Bone morphogenetic protein 1; assay: Inhibition of C-terminal FLAG-6x-His epitope tagged and N-terminal human RAGE signal sequence tagged human BMP1 (23 to 721 amino acids) expressed in CHO-E1 cells pre-incubated for 10 mins before promyostatin peptide substrate addition and measured after 60 mins using 0.5 nM BMP1 by FRET based assay; format: cell-based
[3] = Reduction in PICP levels in human cardiac fibroblasts incubated for 24 to 48 hrs by ELISA; format: functional
Outline: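 Human cardiac fibroblasts (passage 6 or below) were seeded at 10,000 to 15,000 cells per well in 96-well plates. The next day they were treated in ficoll crowding EMEM with 100 μM ascorbic acid and under 0.3% DMSO, for 24 to 48 hr at 37° C. Procollagen I C-terminal propeptide in the medium was measured with a Quidel ELISA. IC50 came from fitting levels relative to untreated controls to a log(inhibitor)-response equation in GraphPad Prism.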

Chain of Tolloid-like protein 1 (O43897 148-1013 I156V/N221S/V284A limits assumed): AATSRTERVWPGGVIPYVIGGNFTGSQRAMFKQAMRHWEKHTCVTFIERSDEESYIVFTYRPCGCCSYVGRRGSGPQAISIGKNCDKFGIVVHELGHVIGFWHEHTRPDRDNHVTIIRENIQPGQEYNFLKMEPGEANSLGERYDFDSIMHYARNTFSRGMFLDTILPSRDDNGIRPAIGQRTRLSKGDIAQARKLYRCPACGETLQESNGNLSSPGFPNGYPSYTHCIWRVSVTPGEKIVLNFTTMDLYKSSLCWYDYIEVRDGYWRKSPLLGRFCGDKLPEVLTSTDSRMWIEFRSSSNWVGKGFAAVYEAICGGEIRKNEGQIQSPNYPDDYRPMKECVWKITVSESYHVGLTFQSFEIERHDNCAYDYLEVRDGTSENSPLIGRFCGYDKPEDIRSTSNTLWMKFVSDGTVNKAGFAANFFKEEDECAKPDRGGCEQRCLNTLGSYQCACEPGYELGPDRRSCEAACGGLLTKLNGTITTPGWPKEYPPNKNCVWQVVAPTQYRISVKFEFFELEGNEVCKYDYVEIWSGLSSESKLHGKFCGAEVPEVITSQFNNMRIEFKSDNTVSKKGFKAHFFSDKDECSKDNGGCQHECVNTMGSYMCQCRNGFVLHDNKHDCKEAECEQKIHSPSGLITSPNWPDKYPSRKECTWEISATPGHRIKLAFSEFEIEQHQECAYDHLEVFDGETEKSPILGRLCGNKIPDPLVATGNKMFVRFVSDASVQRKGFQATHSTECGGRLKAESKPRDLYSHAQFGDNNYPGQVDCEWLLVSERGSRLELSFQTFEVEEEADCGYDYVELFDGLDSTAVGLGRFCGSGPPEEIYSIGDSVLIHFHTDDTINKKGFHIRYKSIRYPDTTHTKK

Row | Compound | IC50 (Tolloid-like protein 2) [nM] | IC50 (Tolloid-like protein 1) [nM] | IC50 [1] [nM] | IC50 [2] [nM] | IC50 [3] [nM]
1 | CCCCC[C@H](CN(O)C=O)C(=O)NCNC(=O)c1ccc(-c2cc(OC)ccn2)o1 | < 794 | < 398 | < 200 | < 126 | < 3980
2 | CCCCC[C@H](CN(O)C=O)C(=O)NCNC(=O)c1ccc(-c2cc(OCC)cc(C(=O)OC)c2)o1 | < 794 | < 398 | < 200 | < 126 | < 3980
3 | CCCCC[C@H](CN(O)C=O)C(=O)NCNC(=O)c1ccc(-c2ccc(F)c(C(=O)OC)c2)o1 | < 794 | < 398 | < 200 | < 126 | < 3980
4 | CCCCC[C@H](CN(O)C=O)C(=O)NCNC(=O)c1ccc(-c2cccc(S(=O)(=O)NC(=O)CC)c2)o1 | < 794 | < 398 | < 200 | < 126 | < 3980
5 | CCCCC[C@@H](C(=O)NCNC(=O)c1ccc(-c2cc(O)cc(P(=O)(O)O)c2)o1)[C@@H](CC)N(O)C=O | < 794 | < 398 | < 200 | < 126 | < 3980
6 | CCCCC[C@H](CN(O)C=O)C(=O)NCNC(=O)c1ccc(-c2cccc(C(=O)O)c2C)o1 | < 794 | < 398 | < 200 | < 126 | < 3980
7 | CCCCC[C@@H](C(=O)NCNC(=O)c1ccc(-c2cc(OCC(=O)O)cc(C(=O)N[C@@H](CC(=O)O)C(=O)O)c2)o1)[C@@H](CC)N(O)C=O | < 794 | < 398 | < 200 | < 126 | < 3980
8 | CCCCC[C@H](CN(O)C=O)C(=O)NCNC(=O)c1ccc(-c2cccc(OCC)c2)o1 | < 794 | < 398 | < 200 | < 126 | < 3980
9 | CCCCC[C@H](CN(O)C=O)C(=O)NCNC(=O)c1ccc(-c2cc(OC)cc(C(=O)O)c2)o1 | < 794 | < 398 | < 200 | < 126 | < 3980
10 | CCCCC[C@@H](C(=O)NCNC(=O)c1ccc(-c2ccc(C(=O)NCP(=O)(O)O)cc2)o1)[C@@H](CC)N(O)C=O | < 794 | < 398 | < 200 | < 126 | < 3980
11 | CCCCC[C@H](CN(O)C=O)C(=O)NCNC(=O)c1ccc(-c2cccc(C(=O)OC)c2)o1 | < 794 | < 398 | < 200 | < 126 | < 3980
12 | CCCCC[C@H](CN(O)C=O)C(=O)NCNC(=O)c1ccc(-c2cc(OC)ccc2OC)o1 | < 794 | < 398 | < 200 | < 126 | < 3980
13 | CCCCC[C@H](CN(O)C=O)C(=O)NCNC(=O)c1ccc(-c2ccc3cnn(C)c3c2)o1 | < 794 | < 398 | < 200 | < 126 | < 3980
14 | CCCCC[C@H](CN(O)C=O)C(=O)NCNC(=O)c1ccc(-c2cccc(OCC(F)F)c2)o1 | < 794 | < 398 | < 200 | < 126 | < 3980
15 | CCCCC[C@H](CN(O)C=O)C(=O)NCNC(=O)c1ccc(-c2cccc(P(=O)(O)O)c2)o1 | < 794 | < 398 | < 200 | < 126 | < 3980
16 | CCCCC[C@H](CN(O)C=O)C(=O)NCNC(=O)c1ccc(-c2cccc(OCC(F)(F)F)c2)o1 | < 794 | < 398 | < 200 | < 126 | < 3980
17 | CCCCC[C@H](CN(O)C=O)C(=O)NCNC(=O)c1ccc(-c2cc(OC)cc(C(=O)NCCN)c2)o1 | < 794 | < 398 | < 200 | < 126 | < 3980
18 | CCCCC[C@H](CN(O)C=O)C(=O)NCNC(=O)c1ccc(-c2ccc(N)c(C(=O)O)c2)o1 | < 794 | < 398 | < 200 | < 126 | < 3980
19 | CCCCC[C@H](CN(O)C=O)C(=O)NCNC(=O)c1ccc(-c2cccc(OC(F)(F)F)c2)o1 | < 794 | < 398 | < 200 | < 126 | < 3980
20 | CCCCC[C@@H](C(=O)NCNC(=O)C1CCC(c2cc(OCC)cc(P(=O)(O)O)c2)O1)[C@@H](CC)N(O)C=O (stereo not given in full) | < 794 | < 398 | < 200 | < 126 | < 3980
21 | CCCCC[C@H](CN(O)C=O)C(=O)NCNC(=O)c1ccc(-c2cccc(P(=O)(O)OC)c2)o1 | < 794 | < 398 | < 200 | < 126 | < 3980
22 | CCCCC[C@H](CN(O)C=O)C(=O)NCNC(=O)c1ccc(-c2cccc(SCC)c2)o1 | < 794 | < 398 | < 200 | < 126 | < 3980
23 | CCCCC[C@@H](C(=O)NCNC(=O)c1ccc(-c2cc(OCC)cc(P(=O)(OC)OC)c2)o1)[C@@H](CC)N(O)C=O | < 794 | < 398 | < 200 | < 126 | < 3980
24 | CCCCC[C@@H](C(=O)NCNC(=O)c1ccc(-c2ccc(CC(=O)O)cc2)o1)[C@@H](CC)N(O)C=O | < 794 | < 398 | < 200 | < 126 | < 3980
25 | CCCCC[C@@H](C(=O)NCNC(=O)c1ccc(-c2ccc(C(=O)N[C@@H](CC(=O)O)C(=O)O)cc2)o1)[C@@H](CC)N(O)C=O | < 794 | < 398 | < 200 | < 126 | < 3980
26 | CCCCC[C@@H](C(=O)NCNC(=O)c1ccc(-c2ccc(C3(C(=O)O)CC3)cc2)o1)[C@@H](CC)N(O)C=O | < 794 | < 398 | < 200 | < 126 | < 3980
27 | CCOc1cc(C(=O)O)c(O)c(-c2ccc(C(=O)NCNC(=O)[C@H](CCc3ccccc3)[C@@H](CC)N(O)C=O)o2)c1 | < 794 | < 398 | < 200 | < 126 | < 3980
